Results on nine compounds are retold here after ChEMBL document CHEMBL3992544, “Novel 6-methoxycarbonyl indolinones bearing a pyrrole Mannich base moiety as angiokinase inhibitors” (Bioorg Med Chem, 2017).

For assay [1], the target named is Platelet-derived growth factor receptor beta (Homo sapiens, UniProt P09619). As to the kind of experiment: Inhibition of human N-terminal GST-tagged PDGFRbeta cytoplasmic domain (557 to 1106 residues) expressed in baculovirus expression system preincubated for 10 mins followed by FAM-labeled peptide substrate addition measured after 1 hr by mobility shift assay.
Chain of Platelet-derived growth factor receptor beta (P09619 whole entry, the tested form may be a part): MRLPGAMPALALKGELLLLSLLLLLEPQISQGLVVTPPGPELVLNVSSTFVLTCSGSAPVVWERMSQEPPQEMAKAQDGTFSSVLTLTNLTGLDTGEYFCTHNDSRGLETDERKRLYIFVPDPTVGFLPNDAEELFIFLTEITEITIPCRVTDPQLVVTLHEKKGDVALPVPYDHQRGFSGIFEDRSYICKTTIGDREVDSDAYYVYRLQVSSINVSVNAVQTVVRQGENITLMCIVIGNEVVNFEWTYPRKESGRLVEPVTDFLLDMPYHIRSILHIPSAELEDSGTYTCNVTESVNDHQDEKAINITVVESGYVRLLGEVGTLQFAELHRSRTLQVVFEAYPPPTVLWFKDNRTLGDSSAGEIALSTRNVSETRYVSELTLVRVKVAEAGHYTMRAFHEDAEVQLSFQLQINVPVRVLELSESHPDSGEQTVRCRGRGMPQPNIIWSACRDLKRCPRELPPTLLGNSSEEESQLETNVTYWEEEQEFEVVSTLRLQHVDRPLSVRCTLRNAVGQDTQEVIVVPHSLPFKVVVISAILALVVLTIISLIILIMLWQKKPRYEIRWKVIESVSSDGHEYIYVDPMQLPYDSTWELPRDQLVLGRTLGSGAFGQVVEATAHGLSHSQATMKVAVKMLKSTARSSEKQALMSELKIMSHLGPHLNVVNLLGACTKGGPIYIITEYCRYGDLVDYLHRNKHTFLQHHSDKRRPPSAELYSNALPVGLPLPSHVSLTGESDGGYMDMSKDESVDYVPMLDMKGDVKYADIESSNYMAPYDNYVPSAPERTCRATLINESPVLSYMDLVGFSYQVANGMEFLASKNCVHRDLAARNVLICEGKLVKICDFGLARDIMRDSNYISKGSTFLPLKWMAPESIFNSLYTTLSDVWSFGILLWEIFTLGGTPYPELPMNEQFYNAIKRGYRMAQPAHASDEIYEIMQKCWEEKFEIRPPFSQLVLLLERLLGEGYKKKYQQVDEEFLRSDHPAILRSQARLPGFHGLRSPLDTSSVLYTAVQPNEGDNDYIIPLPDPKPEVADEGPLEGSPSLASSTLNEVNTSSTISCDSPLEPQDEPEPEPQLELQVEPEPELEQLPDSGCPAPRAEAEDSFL

Assay [2] has as its system HT-29. Put plainly: Antiproliferative activity against human HT-29 cells after 72 hrs by MTT assay. The note with it: HT-29, 72 h.
The subject of a further assay is SK-OV-3. As to the kind of experiment: Antiproliferative activity against human SKOV3 cells after 72 hrs by MTT assay. The note with it: SK-OV-3, 72 h.
The next assay deals with HeLa. As to the kind of experiment: Antiproliferative activity against human HeLa cells after 72 hrs by MTT assay.
The subject of assay [3] is HT-29. As to the kind of experiment: Induction of apoptosis in human HT-29 cells after 48 hrs by acridine orange/ethidium bromide staining based confocal laser scanning microscopic method. In kind it is functional, cell-based.
Assay [4] addresses Vascular endothelial growth factor receptor 1 (Homo sapiens, UniProt P17948). Put plainly: Inhibition of recombinant human GST-tagged VEGFR1 cytoplasmic domain (781 to 1338 residues) expressed in baculovirus expression system preincubated for 10 mins followed by FAM-labeled peptide substrate addition measured after 1 hr by mobility shift assay.
Assay [5] concerns the target Fibroblast growth factor receptor 1 (Homo sapiens, UniProt P11362). As to the kind of experiment: Inhibition of recombinant human GST-tagged FGFR1 cytoplasmic domain (398 to 822 residues) expressed in baculovirus expression system preincubated for 10 mins followed by FAM-labeled peptide substrate addition measured after 1 hr by mobility shift assay.

Chain of Vascular endothelial growth factor receptor 1 (P17948 whole entry, the tested form may be a part): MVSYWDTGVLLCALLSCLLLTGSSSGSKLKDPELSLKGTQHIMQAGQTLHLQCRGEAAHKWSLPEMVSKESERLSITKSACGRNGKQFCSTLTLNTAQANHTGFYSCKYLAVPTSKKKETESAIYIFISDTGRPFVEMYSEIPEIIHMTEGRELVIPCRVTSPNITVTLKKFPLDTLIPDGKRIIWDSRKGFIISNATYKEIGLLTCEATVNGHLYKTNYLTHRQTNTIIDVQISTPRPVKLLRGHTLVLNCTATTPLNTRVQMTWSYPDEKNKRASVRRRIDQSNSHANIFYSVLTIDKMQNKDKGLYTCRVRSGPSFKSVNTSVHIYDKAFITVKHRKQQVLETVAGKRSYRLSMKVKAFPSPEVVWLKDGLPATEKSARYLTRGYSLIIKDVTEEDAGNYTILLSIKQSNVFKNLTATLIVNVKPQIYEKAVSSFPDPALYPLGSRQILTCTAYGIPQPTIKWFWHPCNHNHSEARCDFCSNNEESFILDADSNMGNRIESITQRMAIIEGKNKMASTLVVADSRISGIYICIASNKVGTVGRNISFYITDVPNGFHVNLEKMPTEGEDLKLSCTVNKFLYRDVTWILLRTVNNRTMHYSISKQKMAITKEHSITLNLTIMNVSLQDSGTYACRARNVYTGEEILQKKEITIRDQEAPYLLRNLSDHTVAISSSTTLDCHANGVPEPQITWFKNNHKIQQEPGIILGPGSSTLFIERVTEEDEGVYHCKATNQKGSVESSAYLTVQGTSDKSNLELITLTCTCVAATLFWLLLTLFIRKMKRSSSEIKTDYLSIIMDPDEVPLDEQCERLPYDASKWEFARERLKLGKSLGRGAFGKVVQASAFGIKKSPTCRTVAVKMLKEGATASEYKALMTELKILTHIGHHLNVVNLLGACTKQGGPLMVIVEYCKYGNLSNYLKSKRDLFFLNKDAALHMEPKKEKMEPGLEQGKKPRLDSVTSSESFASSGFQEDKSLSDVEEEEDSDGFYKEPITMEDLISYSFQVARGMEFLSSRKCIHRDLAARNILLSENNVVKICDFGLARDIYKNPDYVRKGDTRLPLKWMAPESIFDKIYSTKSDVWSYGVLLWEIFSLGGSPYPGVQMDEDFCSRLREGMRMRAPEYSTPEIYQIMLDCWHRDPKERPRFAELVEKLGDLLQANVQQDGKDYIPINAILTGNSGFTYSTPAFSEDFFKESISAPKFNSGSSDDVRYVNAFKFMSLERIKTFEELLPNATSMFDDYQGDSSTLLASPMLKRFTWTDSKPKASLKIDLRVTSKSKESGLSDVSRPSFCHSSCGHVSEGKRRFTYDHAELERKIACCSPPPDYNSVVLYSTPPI
Chain of Fibroblast growth factor receptor 1 (P11362 whole entry, the tested form may be a part): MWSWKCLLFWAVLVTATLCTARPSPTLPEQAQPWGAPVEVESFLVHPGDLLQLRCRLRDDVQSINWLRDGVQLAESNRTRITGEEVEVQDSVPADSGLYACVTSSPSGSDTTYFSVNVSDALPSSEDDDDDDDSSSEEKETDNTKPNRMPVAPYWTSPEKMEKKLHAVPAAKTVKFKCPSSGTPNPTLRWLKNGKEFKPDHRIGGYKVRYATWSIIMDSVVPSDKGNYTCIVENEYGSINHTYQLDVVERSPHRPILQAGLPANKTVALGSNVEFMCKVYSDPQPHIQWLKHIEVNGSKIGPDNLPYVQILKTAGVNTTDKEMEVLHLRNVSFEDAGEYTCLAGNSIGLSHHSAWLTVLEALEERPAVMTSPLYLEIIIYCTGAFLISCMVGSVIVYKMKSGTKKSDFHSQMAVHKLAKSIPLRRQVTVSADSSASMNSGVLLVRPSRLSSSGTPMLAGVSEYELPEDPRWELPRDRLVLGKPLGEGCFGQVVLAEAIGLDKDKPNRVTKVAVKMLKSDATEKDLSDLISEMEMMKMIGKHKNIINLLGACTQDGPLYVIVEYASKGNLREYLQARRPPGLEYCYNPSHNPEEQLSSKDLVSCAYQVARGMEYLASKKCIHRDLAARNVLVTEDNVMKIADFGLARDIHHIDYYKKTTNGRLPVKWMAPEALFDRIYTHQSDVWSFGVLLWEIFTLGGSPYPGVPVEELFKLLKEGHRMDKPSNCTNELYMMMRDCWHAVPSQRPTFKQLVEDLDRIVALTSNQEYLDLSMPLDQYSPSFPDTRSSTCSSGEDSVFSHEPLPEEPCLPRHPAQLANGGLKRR

`COC(=O)c1ccc2c(c1)NC(=O)/C2=C(\Nc1ccc(-n2cccc2CN2CCNCC2)cc1)c1ccccc1`: the IC50 in assay [1] stood at 65.2 nM.

`COC(=O)c1ccc2c(c1)NC(=O)/C2=C(\Nc1ccc(-n2cccc2CN2CCCC2)cc1)c1ccccc1`: the IC50 in assay [1] was found to be 27.1 nM.

As to `COC(=O)c1ccc2c(c1)NC(=O)/C2=C(\Nc1ccc(-n2cccc2CN(C)C)cc1)c1ccccc1`, the IC50 was 14.3 nM in assay [1]; 980 nM with HT-29 [2]; 5220 nM in the assay on SK-OV-3; 53200 nM in the assay with HeLa; 99.2 nM in assay [4]; more than 500 nM in assay [5]. In the assay on HT-29 [3], the Activity entry was “Dose-dependent effect”.

In the case of `COC(=O)c1ccc2c(c1)NC(=O)/C2=C(\Nc1ccc(N(C)C(=O)CN2CCN(C)CC2)cc1)c1ccccc1` [NINTEDANIB], the IC50 came out at 4900 nM in the assay on HT-29 [2], 28800 nM with SK-OV-3 and 51600 nM in the assay on HeLa.

Consider `CCN(CC)Cc1cccn1-c1ccc(N/C(=C2\C(=O)Nc3cc(C(=O)OC)ccc32)c2ccccc2)cc1`, for which the IC50 in assay [1] came out at 31.4 nM.

For `COC(=O)c1ccc2c(c1)NC(=O)/C2=C(\Nc1ccc(-n2cccc2CN2CCN(C)CC2)cc1)c1ccccc1`, the IC50 came to 83.2 nM in assay [1], 3120 nM in the assay with HT-29 [2], 25900 nM with SK-OV-3 and 30400 nM with HeLa.

For the compound `COC(=O)c1ccc2c(c1)NC(=O)/C2=C(\Nc1ccc(-n2cccc2CN2CCCCC2)cc1)c1ccccc1`, the IC50 in assay [1] was found to be 45.5 nM.

In the case of `COC(=O)c1ccc2c(c1)NC(=O)/C2=C(\Nc1ccc(Cn2cccc2CN(C)C)cc1)c1ccccc1`, in assay [1], the IC50 was determined as 29.8 nM.

For `COC(=O)c1ccc2c(c1)NC(=O)/C2=C(\Nc1ccc(Cn2cccc2CN2CCN(C)CC2)cc1)c1ccccc1`, in assay [1], the IC50 came out at 67.8 nM.
